The subject of one test is K562/Adr. Kind of test: Growth inhibiting effect of PA on drug resistant cells (MTT). The format is cell-based. To be noted: Homo sapiens, PA alone, read-out: IC50 growth inhibition. The procedure: (§1) Methods: 1×10^3 cells per well were inoculated onto a 96-well plate. PA was added to K562/Adr directly and to KBV200 and MCF-7/Adr after adhesion. The concentrations of the drugs were 0, 0.1, 0.5, 1, 5, 10, 20, 40, 80, 160 μg/mL. MTT was determined according to the method of example 2 and the IC50 was calculated. The experiment was repeated three times.

A further test has as its system KBv200. Described as above. The settings on record: Homo sapiens; KBv200, PA alone; read-out: IC50 growth inhibition. Type of test: cell-based. Here is the method: as §1
For another test, the system named is MCF-7/Adr. The description is as above. To be noted: Homo sapiens, NCI/ADR-RES, PA alone, read-out: IC50 growth inhibition. The format is cell-based. Here is the method: as §1
For the next test, the system named is K562/Adr cells. The test is described as follows: Sensitizing effect of PA to conventional chemotherapeutic drugs (MTT). Type of test: cell-based, human. The settings on record: IC50 without sensitizer / with sensitizer 10 μg/mL. The procedure:
(§2) The cells at logarithmic phase were collected and added into RPMI 1640 medium (containing 10% fetal bovine serum) to make cell suspensions. The cell suspension was added to 96-well plate at 100 μl per well, and the cell number was 2×10^3 (suspending cells) or 1×10^3 (adherent cells) per well. After inoculation, the suspending cells were adapted for half an hour on the plate and the adherent cells were cultivated to allow adhesion before the drugs were added. The control groups (Ctrl) were added with anti-tumor drugs but without PA. The drug concentration of each PA group was 10 μg/mL. The concentrations of chemotherapeutic drugs increased from 0.001 μg/mL to 20 μg/mL. There Were six parallel repeated wells for every concentration gradient. RPMI 1640 was added up to a finally volume of 200 μl per well. The cells were cultured at the condition of 37° C., saturated humidity, 5% CO2 for 68 hours. The MTT was determined and the IC50 was calculated as in example 4.
(§3) The formula of resistant factor: Resistant Factor (RF)=the IC50 without sensitizer/the IC50 with sensitizer.

The next test relates to KBv200 cells. Described as above. Type of test: cell-based, human. To be noted: KBv200, IC50 without sensitizer / with sensitizer 10 μg/mL. Here is the method: as §2, §3
Another test concerns MCF-7/Adr cells. The test is described as above. The settings on record: IC50 without sensitizer / with sensitizer 10 μg/mL. Type of test: cell-based, human. The procedure: as §2, §3

Experimental findings from patent publication US8445532B2, “Use of phthalide derivatives” (priority 2005, dated 2013) are described below.

In brackets after ≈: the same amount, converted by molar mass.

For orientation: IC50 means the concentration needed to halve the response being measured. Turning to `CCC/C=C1\OC(=O)C2=C1CCC(O)C2O` (single isomer, unassigned) [S5], the IC50 with K562/Adr was 18.3 ± 0.762 µg/mL (≈ 81.6 µM); in the test with KBv200 it was 29.8 ± 1.05 µg/mL (≈ 133 µM); in the test with MCF-7/Adr, 39.3 ± 2.14 µg/mL (≈ 175 µM). Besides, the “RF (Ctrl/S), Adr” value with K562/Adr cells is reported as 6.264; with KBv200 cells, 16.95; with MCF-7/Adr cells, 5.02. For the same compound, the figures for the “RF (Ctrl/S), DDP” value with K562/Adr cells, in the test on KBv200 cells and in the test with MCF-7/Adr cells were 2.104, 3.208 and 4.508, respectively. The “RF (Ctrl/S), Taxol” value with K562/Adr cells was 2.117; in the test on KBv200 cells, 13.88; in the test with MCF-7/Adr cells it was 15.62. In addition, the figures for the “RF (Ctrl/S), Vin” value in the test on K562/Adr cells, in the test with KBv200 cells and with MCF-7/Adr cells were 3.109, 2.088 and 6.934, respectively.
On to `CCC/C=C1\OC(=O)C2=C1CC[C@H]1C3C=C4C(=O)O/C(=C\CCC)[C@@]4(CC3)C21` (stereo partly drawn) [S6], for which the IC50 stood at 29.8 ± 0.995 µg/mL (≈ 78.3 µM) in the test on K562/Adr, 35.2 ± 2.15 µg/mL (≈ 92.6 µM) with KBv200 and 44.5 ± 3.99 µg/mL (≈ 117 µM) with MCF-7/Adr. In addition, the results for the “RF (Ctrl/S), Adr” value in the test with K562/Adr cells, in the test on KBv200 cells and with MCF-7/Adr cells were 6.249, 2.297 and 12.59, respectively. The “RF (Ctrl/S), DDP” value in the test on K562/Adr cells is reported as 1.371; in the test with KBv200 cells, 2.622; in the test with MCF-7/Adr cells, 2.539. The “RF (Ctrl/S), Taxol” value in the test with K562/Adr cells amounted to 1.641; in the test with KBv200 cells, 8.72; with MCF-7/Adr cells, 3.932. Besides, the “RF (Ctrl/S), Vin” value was determined as 1.833 in the test with K562/Adr cells, 3.342 with KBv200 cells and 13.22 with MCF-7/Adr cells.
Turning to `CCC/C=C1\OC(=O)C2=C1CCC1C(CCC)C3(OC(=O)C4=C3CCC=C4)C21` (stereo not drawn) [S7], the figures for the IC50 with K562/Adr, in the test with KBv200 and in the test with MCF-7/Adr were 20.4 ± 2.61 µg/mL (≈ 53.7 µM), 36.9 ± 2.19 µg/mL (≈ 97 µM) and 39.6 ± 4.61 µg/mL (≈ 104 µM), respectively. In addition, the “RF (Ctrl/S), Adr” value in the test on K562/Adr cells is on record as 8.257; with KBv200 cells it was 2.405; with MCF-7/Adr cells, 14.12. The “RF (Ctrl/S), DDP” value was determined as 0.653 in the test on K562/Adr cells, 5.939 in the test on KBv200 cells and 6.516 with MCF-7/Adr cells. Also, the results for the “RF (Ctrl/S), Taxol” value in the test with K562/Adr cells, with KBv200 cells and with MCF-7/Adr cells were 1.550, 5.179 and 7.023, respectively. Further, the “RF (Ctrl/S), Vin” value in the test with K562/Adr cells is given as 3.963; with KBv200 cells, 7.376; in the test on MCF-7/Adr cells, 3.831.
As for `CCC/C=C1\OC(=O)C2=CC3CC[C@]21C1C2=C(CC[C@@H]31)C(CCCC)OC2=O` (stereo partly drawn) [S8], the IC50 with K562/Adr came out at 31.3 ± 1.87 µg/mL (≈ 81.8 µM); in the test on KBv200 it was 38.6 ± 2.17 µg/mL (≈ 101 µM); in the test with MCF-7/Adr, 43.2 ± 3.14 µg/mL (≈ 113 µM). In addition, the “RF (Ctrl/S), Adr” value stood at 1.796 in the test on K562/Adr cells, 3.623 in the test on KBv200 cells and 5.639 in the test on MCF-7/Adr cells. Besides, the “RF (Ctrl/S), DDP” value with K562/Adr cells amounted to 2.722; with KBv200 cells, 4.375; in the test with MCF-7/Adr cells it was 6.407. Besides, the “RF (Ctrl/S), Taxol” value in the test on K562/Adr cells is given as 3.506; in the test with KBv200 cells, 3.87; in the test with MCF-7/Adr cells, 1.612. In addition, the “RF (Ctrl/S), Vin” value in the test with K562/Adr cells is listed as 7.918; with KBv200 cells it was 7.326; with MCF-7/Adr cells, 9.597.
As to `CCCCC1OC(=O)C2=C1CCC=C2` (single isomer, unassigned) [S1], the concentration for half-maximal inhibition (IC50) was 21.4 ± 1.09 µg/mL (≈ 111 µM) in the test on K562/Adr, 38.7 ± 2.13 µg/mL (≈ 201 µM) in the test with KBv200 and 37.4 ± 3.15 µg/mL (≈ 195 µM) in the test on MCF-7/Adr. The “RF (Ctrl/S), Adr” value is reported as 34.99 in the test with K562/Adr cells, 10.27 in the test on KBv200 cells and 11.34 with MCF-7/Adr cells. Moreover, the “RF (Ctrl/S), DDP” value with K562/Adr cells is 5.116; with KBv200 cells, 8.063; with MCF-7/Adr cells, 3.376. The “RF (Ctrl/S), Taxol” value in the test on K562/Adr cells was 24.04; with KBv200 cells, 5.245; in the test with MCF-7/Adr cells it was 2.685. Further, the “RF (Ctrl/S), Vin” value was 6.214 with K562/Adr cells, 13.03 with KBv200 cells and 11.12 with MCF-7/Adr cells.
As for `CCCCC1OC(=O)c2cccc(O)c21` (stereo not drawn) [S2], the IC50 in the test with K562/Adr was 41.4 ± 3.53 µg/mL (≈ 201 µM); in the test with KBv200 it was 26.4 ± 1.98 µg/mL (≈ 128 µM); with MCF-7/Adr, 29.4 ± 2.8 µg/mL (≈ 143 µM). The figures for the “RF (Ctrl/S), Adr” value in the test with K562/Adr cells, with KBv200 cells and with MCF-7/Adr cells were 41.12, 12.23 and 6.939, respectively. The “RF (Ctrl/S), DDP” value is 5.698 in the test on K562/Adr cells, 2.767 in the test on KBv200 cells and 2.565 with MCF-7/Adr cells. Moreover, the “RF (Ctrl/S), Taxol” value in the test on K562/Adr cells was found to be 10.57; in the test with KBv200 cells it was 10.83; with MCF-7/Adr cells, 10.19. In addition, the entries for the “RF (Ctrl/S), Vin” value in the test on K562/Adr cells, in the test with KBv200 cells and with MCF-7/Adr cells were 1.757, 11.40 and 6.239, respectively.
`CCC/C=C1\OC(=O)C2=C1CCC1OC21` (single isomer, unassigned) [S3]: the figures for the IC50 in the test on K562/Adr, in the test with KBv200 and with MCF-7/Adr were 39.2 ± 1.58 µg/mL (≈ 190 µM), 27.4 ± 1.06 µg/mL (≈ 133 µM) and 34 ± 3.76 µg/mL (≈ 165 µM), respectively. Besides, the “RF (Ctrl/S), Adr” value with K562/Adr cells is on record as 13.93; in the test with KBv200 cells, 18.97; in the test with MCF-7/Adr cells it was 4.153. Moreover, the “RF (Ctrl/S), DDP” value is on record as 2.239 in the test on K562/Adr cells, 7.188 with KBv200 cells and 6.708 in the test with MCF-7/Adr cells. The “RF (Ctrl/S), Taxol” value with K562/Adr cells is recorded as 5.740; in the test on KBv200 cells it was 2.548; in the test on MCF-7/Adr cells, 3.232. Besides, the “RF (Ctrl/S), Vin” value in the test on K562/Adr cells came to 4.899; with KBv200 cells, 6.169; in the test with MCF-7/Adr cells, 4.008.
On to `CCC/C=C1\OC(=O)C2=C1CCC=C2` [S4], for which the IC50 with K562/Adr worked out at 32.4 ± 1.13 µg/mL (≈ 170 µM); with KBv200 it was 32.5 ± 1.03 µg/mL (≈ 171 µM); in the test with MCF-7/Adr, 47.3 ± 2.12 µg/mL (≈ 249 µM). Further, the “RF (Ctrl/S), Adr” value in the test with K562/Adr cells was 6.349; in the test with KBv200 cells, 5.331; in the test with MCF-7/Adr cells, 3.114. Also, the “RF (Ctrl/S), DDP” value in the test on K562/Adr cells is listed as 3.007; with KBv200 cells, 6.981; in the test on MCF-7/Adr cells, 5.125. Further, the entries for the “RF (Ctrl/S), Taxol” value in the test with K562/Adr cells, in the test on KBv200 cells and in the test with MCF-7/Adr cells were 2.412, 6.416 and 4.279, respectively. The “RF (Ctrl/S), Vin” value in the test with K562/Adr cells is 6.432; in the test with KBv200 cells, 13.02; with MCF-7/Adr cells it was 26.01.
